{"source": "patent US10026660B2", "about": "“Method of etching the back of a wafer to expose TSVs” (priority 2014, dated 2018)", "system": "rat", "assay": "Rat dermal exposure toxicity (LD50)", "details": "rat dermal exposure (skin contact)", "text": "LD50 is the dosage for 50% or more of test rats to […] after skin contact with the test chemicals in a given time. Generally, the higher the LD50, the less toxic the chemical.", "data": [{"smiles": "C[N+](C)(C)C.[OH-]", "note": "[TMAH, Tetramethylammonium hydroxide]", "values": [{"measurement": "LD50", "value": 157, "unit": "mg/kg"}]}]}
